Source: patent publication US6770659B2, “Benzoyl piperidine compounds” (SK Corporation, priority 2002, dated 2004)
Like-named read-outs stand apart in the source and are kept apart here.

System: climbing behavior induced by apomorphine in mice
Experiment: Climbing Mouse Assay (anti-climbing behavior test)
Type: in vivo
Conditions: ICR CD strain male mice, apomorphine challenge; for ED50: Mus musculus
Text: This activity was examined through the anti-climbing behavior test, i.e. the test for suppressing the climbing behavior induced by apomorphine in mice. A designated amount of the test compound was intraperitoneally or orally administered to several groups of ICR CD strain male mice (body weight, 20 to 25 g; one group, 6 mice), and each of the animals was charged in an individual column cage of 12 cm in diameter and 14 cm in height having metal poles (each pole, 2 mm in diameter) vertically installed and arranged along the periphery with interval of 1 cm.
Compounds to be tested for antipsychotic activity are injected intraperitoneally or given orally at various time intervals, e.g. 30 minutes, 60 minutes, etc., prior to the apomorphine challenge at a screening dose of 0.1-60 mg/kg.
For evaluation of climbing, 3 readings are taken at 10, 20 and 30 minutes after apomorphine administration according to the following scale:
Mice consistently climbing before the injection of apomorphine will be discarded.
With full-developed apomorphine climbing, the animals are hanging on to the cage walls, rather motionless, over longer periods of time. By contrast, climbing due to mere motor stimulation usually only lasts a few seconds.
The climbing scores are individually totaled (maximal score: 12 per mouse over 3 readings) and the total score of the control group (vehicle intraperitoneally-apomorphine subcutaneously) is set to 100%. ED50 values with 95% confidence limits, calculated by a linear regression analysis, of some of the compounds of the instant invention as well as a standard antipsychotic agent are presented in Table I.

[1] = intraperitoneal administration, read-out: Climbing Mouse Assay ED50 i.p.
[2] = oral administration, read-out: Climbing Mouse Assay ED50 p.o. (converted)

SMILES: CC(C)c1ccc(C(CN2CCC(C(=O)c3ccc(F)cc3)CC2)n2cncn2)cc1.Cl.Cl.Cl (centres unmarked) [(4-Fluoro-phenyl)-{1-[2-(4-isopropyl-phenyl)-2-[1,2,4]triazoyl-1-yl-ethyl]-piperidin-4-yl}-methanone trihydrochloride]
- Climbing Mouse Assay ED50 i.p. (intraperitoneal administration): 3.1 mg/kg
- Climbing Mouse Assay ED50 p.o. (oral administration): 4.7 mg/kg

SMILES: COC(CN1CCC(C(=O)c2ccc(F)cc2)CC1)c1ccc(C(C)C)cc1 (centres unmarked) [(4-Fluoro-phenyl)-{1-[2-(4-isopropyl-phenyl)-2-methoxy-ethyl]-piperidin-4-yl}-methanone]
- ED50 [1]: 0.17 mg/kg
- ED50 [2]: 0.41 mg/kg

SMILES: COC(CN1CCC(C(=O)c2ccc(F)cc2)CC1)c1ccc([N+](=O)[O-])cc1.Cl (centres unmarked) [(4-Fluoro-phenyl)-{1-[2-methoxy-2-(4-nitro-phenyl)-ethyl]-piperidin-4yl}-methanone; hydrochloride]
- ED50 [1]: 5.9 mg/kg
- ED50 [2]: 51.2 mg/kg

SMILES: CO[C@@H](CN1CCC(C(=O)c2ccc(F)cc2)CC1)c1ccc([N+](=O)[O-])cc1 [(R)-(4-Fluoro-phenyl)-{1-[2-methoxy-2-(4-nitro-phenyl)-ethyl]-piperidin-4-yl}-methanone]
- ED50 [1]: 24.2 mg/kg

SMILES: Cl.NC(=O)O[C@@H](CN1CCC(C(=O)c2ccc(F)cc2)CC1)c1ccccc1 [(R)-Carbamic acid 2-[4-(4-fluoro-benzoyl)-piperidin-1-yl]-1-phenyl-ethyl ester; hydrochloride]
- ED50 [1]: 17.8 mg/kg
- ED50 [2]: 46.2 mg/kg

SMILES: CO[C@H](CN1CCC(C(=O)c2ccc(F)cc2)CC1)c1ccc(C(C)C)cc1 [(S)-(4-Fluoro-phenyl)-{1-[2-(4-isopropyl-phenyl)-2-methoxy-ethyl]-piperidin-4-yl}-methanone]
- ED50 [1]: 0.13 mg/kg
- ED50 [2]: 0.09 mg/kg

SMILES: CO[C@H](CN1CCC(C(=O)c2ccc(F)cc2)CC1)c1ccc([N+](=O)[O-])cc1 [(S)-(4-Fluoro-phenyl)-{1-[2-methoxy-2-(4-nitro-phenyl)-ethyl]-piperidin-4-yl}-methanone]
- ED50 [1]: 4.5 mg/kg
- ED50 [2]: 16.9 mg/kg

SMILES: Cl.NC(=O)O[C@H](CN1CCC(C(=O)c2ccc(F)cc2)CC1)c1ccccc1 [(S)-Carbamic acid 2-[4-(4-fluoro-benzoyl)-piperidin-1-yl]-1-phenyl-ethyl ester; hydrochloride]
- ED50 [1]: 0.96 mg/kg
- ED50 [2]: 4.3 mg/kg

SMILES: CCc1ccc([C@@H](CN2CCC(C(=O)c3ccc(F)cc3)CC2)OC)cc1 [(S)-{1-[2-(4-Ethyl-phenyl)-2-methoxy-ethyl]-piperidin-4-yl}-(4-fluoro-phenyl)-methanone]
- ED50 [1]: 0.31 mg/kg
- ED50 [2]: 1.2 mg/kg

SMILES: O=C(c1ccc(F)cc1)C1CCN(CC(COc2ccccc2)OC(=O)N2CCCCCC2)CC1 (centres unmarked) [Azepane-1-carboxylic acid 1-[4-(4-fluoro-benzoyl)-piperidin-1-ylmethyl]-2-phenoxy-ethyl ester]
- ED50 [1]: 1.5 mg/kg

SMILES: Cl.O=C(NCc1ccccc1)OC(CN1CCC(C(=O)c2ccc(F)cc2)CC1)c1ccccc1 (centres unmarked) [Benzyl-carbamic acid 2-[4-(4-fluoro-benzoyl)-piperidin-1-yl]-1-phenyl-ethyl ester; hydrochloride]
- ED50 [1]: 2.2 mg/kg
- ED50 [2]: 7.1 mg/kg

SMILES: Cl.NC(=O)OC(CN1CCC(C(=O)c2ccc(F)cc2)CC1)c1ccc(Cl)c(Cl)c1 (centres unmarked) [Carbamic acid 1-(3,4-dichloro-phenyl)-2-[4-(4-fluoro-benzoyl)-piperidin-1-yl]-ethyl ester; hydrochloride]
- ED50 [1]: 0.32 mg/kg
- ED50 [2]: 0.48 mg/kg

SMILES: Cl.NC(=O)OC(CN1CCC(C(=O)c2ccc(F)cc2)CC1)c1cccc(Cl)c1 (centres unmarked) [Carbamic acid 1-(3-chloro-phenyl)-2-[4-(4-fluoro-benzoyl)-piperidin-1-yl]-ethyl ester; hydrochloride]
- ED50 [1]: 0.56 mg/kg
- ED50 [2]: 0.94 mg/kg

SMILES: Cl.NC(=O)OC(COc1ccccc1)CN1CCC(C(=O)c2ccc(F)cc2)CC1 (centres unmarked) [Carbamic acid 1-[4-(4-fluoro-benzoyl)-piperidin-1-ylmethyl]-2-phenoxy-ethyl ester; hydrochloride]
- ED50 [1]: 2 mg/kg
- ED50 [2]: 8.5 mg/kg

SMILES: Cl.NC(=O)OC(CN1CCC(C(=O)c2ccc(F)cc2)CC1)c1cccc([N+](=O)[O-])c1 (centres unmarked) [Carbamic acid 2-[4-(4-fluoro-benzoyl)-piperidin-1-yl]-1-(3-nitro-phenyl)-ethyl ester; hydrochloride]
- ED50 [1]: 2.6 mg/kg

SMILES: Cl.NC(=O)OC(CN1CCC(C(=O)c2ccc(F)cc2)CC1)c1ccc(C(F)(F)F)cc1 (centres unmarked) [Carbamic acid 2-[4-(4-fluoro-benzoyl)-piperidin-1-yl]-1-(4-trifluoromethyl-phenyl)-ethyl ester; hydrochloride]
- ED50 [1]: 1.8 mg/kg

SMILES: Cl.NC(=O)OC(CN1CCC(C(=O)c2ccc(F)cc2)CC1)c1ccccc1 (centres unmarked) [Carbamic acid 2-[4-(4-fluoro-benzoyl)-piperidin-1-yl]-1-phenyl-ethyl ester; hydrochloride]
- ED50 [1]: 4.8 mg/kg
- ED50 [2]: 9.7 mg/kg

SMILES: CC(C)OC(=O)OC(CN1CCC(C(=O)c2ccc(F)cc2)CC1)c1cccc(Cl)c1 (centres unmarked) [Carbonic acid 1-(3-chloro-phenyl)-2-[4-(4-fluoro-benzoyl)-piperidin-1-yl]-ethyl ester isopropyl ester]
- ED50 [1]: 6.2 mg/kg

SMILES: CCc1ccc(C(CN2CCC(C(=O)c3ccc(F)cc3)CC2)OC(=O)OC)cc1 (centres unmarked) [Carbonic acid 1-(4-ethyl-phenyl)-2-[4-(4-fluoro-benzoyl)-piperidin-1-yl]-ethyl ester methyl ester]
- ED50 [1]: 2.4 mg/kg
- ED50 [2]: 7.6 mg/kg

SMILES: CN1CCN(C2=Nc3cc(Cl)ccc3Nc3ccccc32)CC1 [Clozapine, reference compound]
- ED50 [1]: 6.3 mg/kg
- ED50 [2]: 13.5 mg/kg

SMILES: Cc1nc2n(c(=O)c1CCN1CCC(c3noc4cc(F)ccc34)CC1)CCCC2 [Risperidone, reference compound]
- ED50 [1]: 0.11 mg/kg
- ED50 [2]: 0.29 mg/kg

SMILES: Cc1ccc(C(CN2CCC(C(=O)c3ccc(F)cc3)CC2)n2cncn2)cc1C (centres unmarked) [{1-[2-(3,4-Dimethyl-phenyl)-2-[1,2,4]triazol-1-yl-ethyl]-piperidin-4-yl}-(4-fluoro-phenyl)-methanone]
- ED50 [1]: 4.5 mg/kg
- ED50 [2]: 16.6 mg/kg

SMILES: CCc1ccc(C(CN2CCC(C(=O)c3ccc(F)cc3)CC2)OC)cc1 (centres unmarked) [{1-[2-(4-Ethyl-phenyl)-2-methoxy-ethyl]-piperidin-4-yl}-(4-fluoro-phenyl)-methanone]
- ED50 [1]: 0.87 mg/kg

SMILES: CCOC(CN1CCC(C(=O)c2ccc(F)cc2)CC1)c1ccc([N+](=O)[O-])cc1 (centres unmarked) [{1-[2-Ethoxy-2-(4-nitro-phenyl)-ethyl]-piperidin-4-yl}-(4-fluoro-1phenyl)-methanone]
- Climbing Mouse Assay ED50 i.p. (intraperitoneal administration): 4.16 mg/kg
